Source: patent publication US20040229268A1, “Method and kit for identifying antibiotic-resistant microorganisms” (priority 2003, published 2004)
≈ marks a conversion by molar mass, not a printed value.

Key:
Staphylococcus isolates = experiment: Oxacillin Minimum Inhibitory Concentration (Ox MIC); assay type: cell-based, S. aureus and other Staphylococcus spp.
[1] = test system: mecA gene; Staphylococcus spp. and S. aureus ribosomal nucleic acids; experiment: HPA probe panel on clinical and ATCC isolates (Examples 8-9); assay type: binding
Protocol: Oxacillin MIC results were provided by an outside laboratory. The GP Probe results were determined as described in Example 8.

Cc1onc(-c2ccccc2)c1C(=O)N[C@@H]1C(=O)N2[C@@H]1SC(C)(C)[C@@H]2C(=O)O [Oxacillin]
MIC (Staphylococcus isolates; Staphylococcus, Pos Control GP1217): > 16 µg/mL
MIC (Staphylococcus isolates; Staphylococcus, Table 14, S. hemoliticus, 1 isolate): ≤ 0.25 µg/mL
MIC (Staphylococcus isolates; Staphylococcus, Table 14, S. hyicus-hyicus, 1 isolate): ≤ 0.25 µg/mL
MIC (Staphylococcus isolates; Staphylococcus, Table 14, S. intermedius, 1 isolate): ≤ 0.25 µg/mL
MIC (Staphylococcus isolates; Staphylococcus, clinical isolate GP21, determined at the collection site): < 0.25 µg/mL
MIC (Staphylococcus isolates; Staphylococcus, clinical isolate GP22, determined at the collection site): 0.5 µg/mL (≈ 1.25 µM)
MIC (Staphylococcus isolates; Staphylococcus, clinical isolate GP23, determined at the collection site): < 0.25 µg/mL
MIC (Staphylococcus isolates; Staphylococcus, clinical isolate GP24, determined at the collection site): > 16 µg/mL
MIC (Staphylococcus isolates; Staphylococcus, clinical isolate GP25, determined at the collection site): > 16 µg/mL
MIC (Staphylococcus isolates; Staphylococcus, clinical isolate GP26, determined at the collection site): < 0.25 µg/mL
MIC (Staphylococcus isolates; Staphylococcus, clinical isolate GP27, determined at the collection site): < 0.25 µg/mL
MIC (Staphylococcus isolates; Staphylococcus, clinical isolate GP28, determined at the collection site): 1 µg/mL (≈ 2.49 µM)
MIC (Staphylococcus isolates; Staphylococcus, clinical isolate GP29, determined at the collection site): > 16 µg/mL
MIC (Staphylococcus isolates; Staphylococcus, clinical isolate GP30, determined at the collection site): < 0.25 µg/mL
MIC (Staphylococcus isolates; Staphylococcus, clinical isolate GP31, determined at the collection site): > 16 µg/mL
MIC (Staphylococcus isolates; Staphylococcus, clinical isolate GP32, determined at the collection site): < 0.25 µg/mL
MIC (Staphylococcus isolates; Staphylococcus, clinical isolate GP33, determined at the collection site): > 16 µg/mL
MIC (Staphylococcus isolates; Staphylococcus, clinical isolate GP34, determined at the collection site): < 0.25 µg/mL
MIC (Staphylococcus isolates; Staphylococcus, clinical isolate GP35, determined at the collection site): > 16 µg/mL
MIC (Staphylococcus isolates; Staphylococcus, clinical isolate GP36, determined at the collection site): < 0.25 µg/mL
MIC (Staphylococcus isolates; Staphylococcus, clinical isolate GP37, determined at the collection site): > 16 µg/mL
MIC (Staphylococcus isolates; Staphylococcus, clinical isolate GP39, determined at the collection site): < 0.25 µg/mL
MIC (Staphylococcus isolates; Staphylococcus, clinical isolate GP40, determined at the collection site): < 0.25 µg/mL
MIC (Staphylococcus isolates; Table 14, ATCC MRSA, first isolate): 8 µg/mL (≈ 19.9 µM)
MIC (Staphylococcus isolates; Table 14, ATCC MRSA, second isolate): 16 µg/mL (≈ 39.9 µM)
MIC (Staphylococcus isolates; Table 14, ATCC MSSA, 1 isolate): 1 µg/mL (≈ 2.49 µM)
MIC (Staphylococcus isolates; Table 14, ATCC MSSA, group of 4 isolates): 0.5 µg/mL (≈ 1.25 µM)
MIC (Staphylococcus isolates; Table 14, ATCC MSSA, group of 6 isolates): ≤ 0.25 µg/mL
MIC (Staphylococcus isolates; Table 14, Clinical MRSA, group of 8 isolates): 16 µg/mL (≈ 39.9 µM)
MIC (Staphylococcus isolates; Table 14, Clinical MRSA, group of 13 isolates): 8 µg/mL (≈ 19.9 µM)
MIC (Staphylococcus isolates; Table 14, Clinical MRSA, group of 14 isolates, provided by an outside laboratory): 4 µg/mL (≈ 9.96 µM)
MIC (Staphylococcus isolates; Table 14, Clinical MRSA, group of 107 isolates): > 16 µg/mL
MIC (Staphylococcus isolates; Table 14, Clinical MSSA, group of 8 isolates): 2 µg/mL (≈ 4.98 µM)
MIC (Staphylococcus isolates; Table 14, Clinical MSSA, group of 13 isolates): 1 µg/mL (≈ 2.49 µM)
MIC (Staphylococcus isolates; Table 14, Clinical MSSA, group of 28 isolates): 0.5 µg/mL (≈ 1.25 µM)
MIC (Staphylococcus isolates; Table 14, Clinical MSSA, group of 99 isolates): ≤ 0.25 µg/mL
MIC (Staphylococcus isolates; Table 14, S. epidermidis, 1 isolate (mecA(+)), first): 4 µg/mL (≈ 9.96 µM)
MIC (Staphylococcus isolates; Table 14, S. epidermidis, 1 isolate (mecA(+)), second): > 16 µg/mL
MIC (Staphylococcus isolates; Table 14, S. epidermidis, group of 2 isolates (mecA(−))): ≤ 0.25 µg/mL
MIC (Staphylococcus isolates; Table 14, S. hominis, 1 isolate): ≤ 0.25 µg/mL
MIC (Staphylococcus isolates; Table 14, S. saprophyticus, 1 isolate): 0.5 µg/mL (≈ 1.25 µM)
MIC (Staphylococcus isolates; Table 14, S. simulans, 1 isolate): ≤ 0.25 µg/mL
MIC (Staphylococcus isolates; Table 14, S. warneri, 1 isolate): ≤ 0.25 µg/mL
Ox MIC (Staphylococcus isolates; specimen 10 (mecA PCR Neg)): 8 µg/mL
Ox MIC (Staphylococcus isolates; specimen 101 (mecA PCR Neg)): 4 µg/mL
Ox MIC (Staphylococcus isolates; specimen 102 (mecA PCR Pos)): 4 µg/mL
Ox MIC (Staphylococcus isolates; specimen 103 (mecA PCR Neg)): 4 µg/mL
Ox MIC (Staphylococcus isolates; specimen 104 (mecA PCR Neg)): 2 µg/mL
Ox MIC (Staphylococcus isolates; specimen 105 (mecA PCR Neg)): 2 µg/mL
Ox MIC (Staphylococcus isolates; specimen 106 (mecA PCR Neg)): 2 µg/mL
Ox MIC (Staphylococcus isolates; specimen 139 (mecA PCR Pos)): 4 µg/mL
Ox MIC (Staphylococcus isolates; specimen 140 (mecA PCR Pos)): 16 µg/mL
Ox MIC (Staphylococcus isolates; specimen 142 (mecA PCR Pos)): 4 µg/mL
Ox MIC (Staphylococcus isolates; specimen 145 (mecA PCR Neg)): 4 µg/mL
Ox MIC (Staphylococcus isolates; specimen 148 (mecA PCR Pos)): 4 µg/mL
Ox MIC (Staphylococcus isolates; specimen 155 (mecA PCR Neg)): 4 µg/mL
Ox MIC (Staphylococcus isolates; specimen 164 (mecA PCR Neg)): 2 µg/mL
Ox MIC (Staphylococcus isolates; specimen 178 (mecA PCR Pos)): 2 µg/mL
Ox MIC (Staphylococcus isolates; specimen 188 (mecA PCR Pos)): 2 µg/mL
Ox MIC (Staphylococcus isolates; specimen 270 (mecA PCR Pos)): <0.25 µg/mL
Ox MIC (Staphylococcus isolates; specimen #99 (mecA PCR Pos), reported by outside laboratory): 4 µg/mL
Ox MIC (Staphylococcus isolates; specimen #100 (mecA PCR Neg), reported by outside laboratory): 4 µg/mL

CCACTCAAGAGAGACAACATTTTCGACTAC (AE label linker 22/23, with helper oligonucleotides, chemistry not fully specified; listed as Staphylococcus aureus) [S. aureus]
HPA Results (# positive for indicated probes) ([1]; ATCC MRSA, 1 isolate, Oxacillin MIC 16 μg/ml): 1
HPA Results (# positive for indicated probes) ([1]; ATCC MSSA, 1 isolate, Oxacillin MIC 1 μg/ml): 1
HPA Results (# positive for indicated probes) ([1]; ATCC MSSA, 4 isolates, Oxacillin MIC 0.5 μg/ml): 4
HPA Results (# positive for indicated probes) ([1]; ATCC MSSA, 6 isolates, Oxacillin MIC ≦0.25 μg/ml): 6
HPA Results (# positive for indicated probes) ([1]; Clinical MRSA, 8 isolates, Oxacillin MIC 16 μg/ml): 8
HPA Results (# positive for indicated probes) ([1]; Clinical MRSA, 107 isolates, Oxacillin MIC >16 μg/ml): 107
HPA Results (# positive for indicated probes) ([1]; Clinical MSSA, 28 isolates, Oxacillin MIC 0.5 μg/ml): 28
HPA Results (# positive for indicated probes) ([1]; Clinical MSSA, 99 isolates, Oxacillin MIC ≦0.25 μg/ml): 99
HPA Results (RLU) ([1]; GP21 (S. aureus, mecA(−), MSSA)): 351348 RLU
HPA Results (RLU) ([1]; GP22 (CoNS, mecA(+))): 7637 RLU
HPA Results (RLU) ([1]; GP23 (S. aureus, mecA(−))): 280428 RLU
HPA Results (RLU) ([1]; GP24 (S. aureus, mecA(+))): 274112 RLU
HPA Results (RLU) ([1]; GP25 (S. aureus, mecA(+))): 408938 RLU
HPA Results (RLU) ([1]; GP26 (S. aureus, mecA(−))): 241597 RLU
HPA Results (RLU) ([1]; GP27 (CoNS, mecA(−))): 7057 RLU
HPA Results (RLU) ([1]; GP28 (S. aureus, mecA(−))): 195759 RLU
HPA Results (RLU) ([1]; GP29 (S. aureus, mecA(+))): 416372 RLU
HPA Results (RLU) ([1]; GP30 (S. aureus, mecA(−))): 399498 RLU
HPA Results (RLU) ([1]; GP31 (S. aureus, mecA(+))): 332750 RLU
HPA Results (RLU) ([1]; GP32 (S. aureus, mecA(−))): 414709 RLU
HPA Results (RLU) ([1]; GP33 (S. aureus, mecA(+))): 154183 RLU
HPA Results (RLU) ([1]; GP34 (S. aureus, mecA(−))): 497890 RLU
HPA Results (RLU) ([1]; GP35 (S. aureus, mecA(+))): 484580 RLU
HPA Results (RLU) ([1]; GP36 (S. aureus, mecA(−))): 356243 RLU
HPA Results (RLU) ([1]; GP37 (S. aureus, mecA(+))): 373448 RLU
HPA Results (RLU) ([1]; GP38 (S. aureus, mecA(+))): 367728 RLU
HPA Results (RLU) ([1]; GP39 (S. aureus, mecA(−))): 268665 RLU
HPA Results (RLU) ([1]; GP40 (S. aureus, mecA(−))): 283200 RLU
HPA Results (RLU) ([1]; Neg Control (Hybridization Buffer)): 3472 RLU
HPA Results (RLU) ([1]; Pos Control GP1217 (S. aureus, mecA(+), MRSA)): 162795 RLU
HPA Results (# positive for indicated probes) ([1]; S. epidermidis, 1 isolate, Oxacillin MIC >16 μg/ml): 0
HPA Results (# positive for indicated probes) ([1]; S. epidermidis, 2 isolates, Oxacillin MIC ≦0.25 μg/ml): 0
HPA Results (# positive for indicated probes) ([1]; S. hemoliticus, 1 isolate, Oxacillin MIC ≦0.25 μg/ml): 0
HPA Results (# positive for indicated probes) ([1]; S. hominis, 1 isolate, Oxacillin MIC ≦0.25 μg/ml): 0
HPA Results (# positive for indicated probes) ([1]; S. hyicus-hyicus, 1 isolate, Oxacillin MIC ≦0.25 μg/ml): 0
HPA Results (# positive for indicated probes) ([1]; S. intermedius, 1 isolate, Oxacillin MIC ≦0.25 μg/ml): 0
HPA Results (# positive for indicated probes) ([1]; S. saprophyticus, 1 isolate, Oxacillin MIC 0.5 μg/ml): 0
HPA Results (# positive for indicated probes) ([1]; S. simulans, 1 isolate, Oxacillin MIC ≦0.25 μg/ml): 0
HPA Results (# positive for indicated probes) ([1]; S. warneri, 1 isolate, Oxacillin MIC ≦0.25 μg/ml): 0
